How the values were obtained:
[1] = system: mouse pancreatic acinar cells; assay: Ex-vivo CCK-AP in mouse pancreatic acinar cells treated with simvastatin or MCD; assay type: cell-based; conditions: simvastatin 4 μM, 3 h or MCD 10 mM, 1 h
Protocol: FIGS. 26A-26D preventing cholesterol overload ameliorates ex-vivo pancreatitis. Mouse pancreatic acinar cells were incubated (A, B) with simvastatin (4 μM, 3 h) or (C, D) cholesterol chelator, methyl-β-cyclodextrin (MCD; 10 mM, 1 h) and then subjected to CCK-AP for 1 (D) or 3 h (A, B). Cholesterol content (A, C) necrosis (B), and trypsin activity (D) were measured. Each symbol represents an individual cell preparation. Values are mean±SEM*p<0/05, **p<0.01 vs control; #p<0.05 ##p<0.01; vs CCK, no inhibitor.
Ex vivo pancreatitis models were performed on mouse and human acinar cells, and human pancreas slices by incubation with supramaximal CCK (100 nM) or carbachol (1 mM), as described previously (80, 81).
Activities of cathepsin (Cat) B and L, caspase-3, trypsin, and lysosomal acid lipase (LAL) were measured in pancreatic tissue or cell homogenates and subcellular fractions with fluorogenic assays using substrates specific for CatB (Z-Arg-Arg-AMC), CatL (Z-Phe-Arg-AMC), caspase-3-like ([…]), trypsin (Boc-Gln-Ala-Arg-AMC), as previously described (1-4, 6, 7); and for LAL (4-methylumbelliferyl oleate), as in (17). In measurements of CatL activity, the assay buffer also contained 50 μM CA-074me, a CatB inhibitor. LAL activity was measured in the absence and presence of the LAL inhibitor lalistat (100 μM) as the difference between these values (17).
Total cholesterol content was measured with Cholesterol Assay kit per manufacturer's instructions. Samples of mouse pancreas and liver, cell pellet homogenates, subcellular fractions, isolated mitochondria, and serum were diluted in the reaction buffer containing cholesterol probe and incubated at 37° C. for 1 h in the dark. To measure total cholesterol, the samples were subjected to digestion with cholesterol esterase. To measure non-esterified cholesterol, the esterase was omitted from the assay.

[2] = system: cerulein pancreatitis (CER-AP); assay: Drug treatment of cerulein pancreatitis (CER-AP) in WT mice; assay type: in vivo, mouse
Protocol: FIGS. 10A-10N show deranged cholesterol metabolism causes acinar cell damage, while its normalization ameliorates experimental pancreatitis. (A-D) Cholesterol content and trypsin activity were measured (per mg protein) in WT mouse acinar cells incubated for 1 hour without and with methyl-β-cyclodextrin (MCD; 10 mM) or cholesterol-loaded MCD (MCD-Chol; 200 μg/mL), in the presence or absence of 100 nM CCK. Values are expressed relative to those in cells without MCD/MCD-Chol. (E-J) WT mice received daily i.p. injections of the LXR agonist T0901317 (T09), simvastatin (Sim; 20 mg/kg each), or vehicle. On day 4, mice were subjected to CER-AP and pancreata collected for analyses (see also FIG. 20). Cholesterol content (E), trypsin activity (F), and pancreas histopathology (H&E staining; G) were measured. (H, I, L, and N) IB analysis of markers/mediators of autophagy (LC3, p62), ER stress (CHOP, GRP-78), and mitophagy (Parkin). Ub, ubiquitylated proteins. (J) Mitochondrial fragmentation was assessed by immunostaining for Tom20, as detailed in FIG. 7G. (K and L) Mouse acinar cells were treated for 16 hours with LDL (30 μg/mL) or the combination of LDL and 10 μM U18666A. (M and N) Mice received injections of U18666A as detailed in FIG. 9B. Pancreas histopathology (H&E staining; M) and levels of autophagy markers/mediators (N) were measured. Each symbol in A-F and I represents an individual mouse or cell preparation. Values are mean±SEM from 3 to 7 mice or cell preparations per condition. ^§ P<0.05, ^§§ P<0.01 vs. control cells (without MCD/MCD-Chol). ***P<0.001 vs. saline-treated mice. ^#P<0.05, ^##P<0.01, ^###P<0.001 vs. CER-AP alone (no inhibitors). Significance was determined by 2-tailed Student's t test (A-D) or 1-way ANOVA followed by Tukey's multiple comparison test (E, F, and I). Scale bars: 10 μm.
FIGS. 20A-20C show simvastatin improves cerulein pancreatitis. Mice received daily i.p. injections of simvastatin (Sim; 20 mg/kg) or vehicle (see FIG. 10), and on day 4 were subjected to cerulein pancreatitis (CER-AP). (A) Pancreas histopathology (H&E staining; scale: 10 μm). (B) IB analysis of markers/mediators of autophagy (LC3, p62), ER stress (CHOP), and the MLN64/STARD3 protein mediating cholesterol transfer from LE/Ly to mitochondria. Each IB lane represents an individual mouse; ERK1/2 is the loading control. […] Ub, ubiquitylated proteins. (C) Pancreatitis responses. Values are mean±SEM from 7-13 mice for each condition. ***p<0.001 vs saline control. ^###p<0.001 vs CER-AP alone (no simvastatin). Significance was determined by 1-way ANOVA followed by Tukey's multiple comparisons test.
FIGS. 25A-25C show reducing cholesterol overload greatly ameliorates experimental pancreatitis. CER-AP responses were measured in (A) AclyAac or (C) WT mice treated with simvastatin or bempedoic acid (BemA). (B) Acinar cells were transfected with ACLA (or mock) siRNA and subjected to ex-vivo CCK-AP. Each symbol represents an individual mouse or cell preparation. Values are mean±SE. **p<0.01, ***p<0.001 vs saline treated control mice (or mock transfection); #p<0.05, ##p<0.01, ###p<0.001 vs CER/CCK-AP in control mice (i.e. without inhibitors) or cells.
Cerulein-induced (CER-AP) and L-arginine induced (Arg-AP) acute pancreatitis models were performed in 12-week-old C57BL/6 mice that received 7 hourly i.p. injections of 50 μg/kg cerulein or 3 hourly i.p. injections of 3.3 g/kg Arg; controls received physiologic saline injections. Mice were euthanized for analyses 7 hours after the first cerulein or 24 hours after the first Arg injection. Choline deficient, ethionine-supplemented (CDE) pancreatitis was induced in young (~5-weeks old) female mice fed either CDE or control diet. Mice were euthanized 72 hours after the diet initiation. These models have been described in detail (1-7).
12-week-old WT mice were subjected for 4 consecutive days to daily i.p. injections of 20 mg/kg simvastatin (8,9) or 20 mg/kg T0901317 (10); or 10 mg/kg U18666A for 15 days (11). […]

[3] = CER-AP, T0901317 or simvastatin 20 mg/kg i.p. daily
[4] = WT mice treated with simvastatin or BemA

Structure (SMILES): CCC(C)(C)C(=O)O[C@H]1C[C@@H](C)C=C2C=C[C@H](C)[C@H](CC[C@@H]3C[C@@H](O)CC(=O)O3)[C@H]21 [simvastatin]
- cholesterol overload in ex-vivo CCK-AP [1]: Reducing
- extent of necrosis in ex-vivo CCK-AP [1]: greatly decreased
- trypsinogen activation in ex-vivo CCK-AP [1]: greatly decreased
- CER-induced increase in MLN64 ([2]; CER-AP, 20 mg/kg i.p. daily): abrogated
- accumulation of LC3-II ([2]; CER-AP, 20 mg/kg i.p. daily): reduced
- accumulation of p62 ([2]; CER-AP, 20 mg/kg i.p. daily): reduced
- accumulation of ubiquitylated proteins ([2]; CER-AP, 20 mg/kg i.p. daily): reduced
- mitochondrial fragmentation (Tom20 IF) ([2]; CER-AP, 20 mg/kg i.p. daily): normalized
- CHOP levels ([2]; CER-AP, 20 mg/kg i.p. daily, ER stress): decreased
- pancreatitis-induced increase in total cholesterol [2, 3]: eliminated
- pancreatitis-induced increase in trypsin activity [2, 3]: eliminated
- other pancreatitis responses ([2]; CER-AP, simvastatin 20 mg/kg i.p. daily, FIG. 20C): ameliorated
- pancreas histopathology in CER-AP ([2]; H&E, 20 mg/kg i.p. daily): improved
- cholesterol overload in CER-AP (FIG. 25C) [2, 4]: decreased
- inflammation in CER-AP (FIG. 25C) [2, 4]: ameliorated
- necrosis in CER-AP (FIG. 25C) [2, 4]: ameliorated
- trypsin activity in CER-AP (FIG. 25C) [2, 4]: ameliorated
- pathologic responses of experimental pancreatitis (impaired autophagy, ER stress and others) ([2]; discussion statement): reduced
- experimental pancreatitis in WT mouse and ex vivo models ([2]; overall result): ameliorated

From US20260325485A1, “COMPOSITIONS AND METHODS FOR TREATING PANCREATITIS” (The United States Government as represented by the …, priority 2022, published 2026)
